Measurements: ChEMBL document CHEMBL3102750 (J Med Chem, 2013)
Changes are numbered by the printed parent chain.

Tests used:
Format in all cases: functional, cell-based
[1] = biological target: T1, Muscarinic acetylcholine receptor M1 (Homo sapiens, UniProt P11229); experiment: Negative allosteric modulation of human muscarinic acetylcholine receptor M1 expressed in CHO cells assessed as inhibition of acetylcholine-induced calcium mobilization incubated for 150 secs prior to acetylcholine induction by Fluo-4 AM staining-based fluorescence assay
T1 sequence (P11229 whole entry): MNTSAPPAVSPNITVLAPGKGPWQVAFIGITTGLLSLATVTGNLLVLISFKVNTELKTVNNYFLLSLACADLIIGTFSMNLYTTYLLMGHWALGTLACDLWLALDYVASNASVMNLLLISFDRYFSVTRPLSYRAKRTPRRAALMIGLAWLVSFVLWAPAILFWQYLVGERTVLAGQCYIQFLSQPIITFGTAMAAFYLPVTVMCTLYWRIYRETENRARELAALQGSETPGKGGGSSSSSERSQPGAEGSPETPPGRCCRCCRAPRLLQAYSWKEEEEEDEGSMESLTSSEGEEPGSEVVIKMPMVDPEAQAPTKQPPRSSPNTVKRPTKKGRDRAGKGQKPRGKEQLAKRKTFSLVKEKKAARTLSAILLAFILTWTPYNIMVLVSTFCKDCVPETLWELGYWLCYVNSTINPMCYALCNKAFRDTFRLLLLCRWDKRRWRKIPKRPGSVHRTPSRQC

[2] = biological target: T2, Muscarinic acetylcholine receptor M2 (Homo sapiens, UniProt P08172); experiment: Negative allosteric modulation of human muscarinic acetylcholine receptor M2 expressed in CHO cells assessed as inhibition of acetylcholine-induced calcium mobilization incubated for 150 secs prior to acetylcholine induction by Fluo-4 AM staining-based fluorescence assay
T2 sequence (P08172 whole entry): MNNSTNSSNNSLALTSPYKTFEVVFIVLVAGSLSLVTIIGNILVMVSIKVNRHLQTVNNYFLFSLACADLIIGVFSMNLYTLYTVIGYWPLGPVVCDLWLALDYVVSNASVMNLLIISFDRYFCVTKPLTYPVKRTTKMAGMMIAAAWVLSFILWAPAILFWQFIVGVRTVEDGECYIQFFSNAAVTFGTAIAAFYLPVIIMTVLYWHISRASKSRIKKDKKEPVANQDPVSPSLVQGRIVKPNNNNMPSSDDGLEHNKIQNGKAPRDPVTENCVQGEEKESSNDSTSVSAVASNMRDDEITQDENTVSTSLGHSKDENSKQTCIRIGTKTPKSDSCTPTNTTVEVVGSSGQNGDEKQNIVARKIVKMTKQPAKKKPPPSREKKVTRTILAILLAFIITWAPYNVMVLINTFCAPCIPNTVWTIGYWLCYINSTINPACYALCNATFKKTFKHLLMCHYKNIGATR

[3] = biological target: Muscarinic acetylcholine receptor M3 (Homo sapiens, UniProt P20309); experiment: Negative allosteric modulation of human muscarinic acetylcholine receptor M3 expressed in CHO cells assessed as inhibition of acetylcholine-induced calcium mobilization incubated for 150 secs prior to acetylcholine induction by Fluo-4 AM staining-based fluorescence assay
[4] = biological target: T3, Muscarinic acetylcholine receptor M1 (Rattus norvegicus, UniProt P08482); experiment: Negative allosteric modulation of rat muscarinic acetylcholine receptor M1 expressed in CHO cells assessed as inhibition of acetylcholine-induced calcium mobilization incubated for 150 secs prior to acetylcholine induction by Fluo-4 AM staining-based fluorescence assay
T3 sequence (P08482 whole entry): T1 sequence (P11229 whole entry) with A5V, T254S, P309S, R320K, A337G, I413V

[5] = biological target: T4, Muscarinic acetylcholine receptor M2 (Rattus norvegicus, UniProt P10980); experiment: Negative allosteric modulation of rat muscarinic acetylcholine receptor M2 expressed in CHO cells assessed as inhibition of acetylcholine-induced calcium mobilization incubated for 150 secs prior to acetylcholine induction by Fluo-4 AM staining-based fluorescence assay
T4 sequence (P10980 whole entry): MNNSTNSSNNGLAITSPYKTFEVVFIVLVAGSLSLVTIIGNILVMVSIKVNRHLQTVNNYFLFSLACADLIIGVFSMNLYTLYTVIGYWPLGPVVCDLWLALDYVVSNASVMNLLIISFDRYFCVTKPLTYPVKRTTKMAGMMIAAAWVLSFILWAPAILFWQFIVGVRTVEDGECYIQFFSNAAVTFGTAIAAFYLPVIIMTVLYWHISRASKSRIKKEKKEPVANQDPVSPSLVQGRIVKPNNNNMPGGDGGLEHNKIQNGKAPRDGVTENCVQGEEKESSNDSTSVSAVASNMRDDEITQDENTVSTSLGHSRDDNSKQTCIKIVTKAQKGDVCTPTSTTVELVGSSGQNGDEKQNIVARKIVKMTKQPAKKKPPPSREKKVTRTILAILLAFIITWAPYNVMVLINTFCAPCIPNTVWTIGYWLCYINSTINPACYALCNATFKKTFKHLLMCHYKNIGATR

[6] = biological target: T5, Muscarinic acetylcholine receptor M4 (Rattus norvegicus, UniProt P08485); experiment: Negative allosteric modulation of rat muscarinic acetylcholine receptor M4 expressed in CHO cells assessed as inhibition of acetylcholine-induced calcium mobilization incubated for 150 secs prior to acetylcholine induction by Fluo-4 AM staining-based fluorescence assay
T5 sequence (P08485 whole entry): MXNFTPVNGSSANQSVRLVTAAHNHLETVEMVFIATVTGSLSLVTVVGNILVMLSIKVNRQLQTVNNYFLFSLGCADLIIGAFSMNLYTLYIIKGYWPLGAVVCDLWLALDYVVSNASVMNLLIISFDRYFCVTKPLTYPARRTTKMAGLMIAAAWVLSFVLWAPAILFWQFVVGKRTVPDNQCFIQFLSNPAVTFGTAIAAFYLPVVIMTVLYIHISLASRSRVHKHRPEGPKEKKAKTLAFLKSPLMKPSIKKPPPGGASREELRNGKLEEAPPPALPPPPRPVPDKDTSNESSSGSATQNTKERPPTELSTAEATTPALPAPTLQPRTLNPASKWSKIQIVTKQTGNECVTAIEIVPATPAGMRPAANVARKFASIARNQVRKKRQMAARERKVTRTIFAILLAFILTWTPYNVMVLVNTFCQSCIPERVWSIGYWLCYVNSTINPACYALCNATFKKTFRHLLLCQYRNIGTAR

Chain of Muscarinic acetylcholine receptor M3 (P20309 whole entry): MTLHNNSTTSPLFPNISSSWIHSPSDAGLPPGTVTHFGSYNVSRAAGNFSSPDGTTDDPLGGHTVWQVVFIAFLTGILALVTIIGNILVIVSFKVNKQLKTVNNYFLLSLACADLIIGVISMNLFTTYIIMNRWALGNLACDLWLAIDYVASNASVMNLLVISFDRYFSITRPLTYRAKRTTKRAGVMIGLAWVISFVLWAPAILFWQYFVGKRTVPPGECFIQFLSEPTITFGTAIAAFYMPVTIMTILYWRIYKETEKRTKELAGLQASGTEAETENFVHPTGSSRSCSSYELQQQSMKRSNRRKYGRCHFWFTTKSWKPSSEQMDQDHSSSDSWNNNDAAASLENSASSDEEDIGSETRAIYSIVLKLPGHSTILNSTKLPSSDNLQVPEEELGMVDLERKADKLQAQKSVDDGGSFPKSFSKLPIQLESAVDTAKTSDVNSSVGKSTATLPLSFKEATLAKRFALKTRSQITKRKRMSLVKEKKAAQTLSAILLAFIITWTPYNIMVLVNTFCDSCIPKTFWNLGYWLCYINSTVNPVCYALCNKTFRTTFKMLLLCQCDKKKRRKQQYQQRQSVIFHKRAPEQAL

Row | IC50 [1] [µM] | IC50 [2] [µM] | IC50 [3] [µM] | IC50 [4] [µM] | IC50 [5] [µM] | IC50 [6] [µM] | Structure (SMILES)
1 | > 30 | > 30 | > 30 | > 30 | > 30 | > 30 | O=C(c1ccc(F)c(F)c1)N1CCN2C(=O)c3ccccc3[C@@]12c1ccc(Cl)cc1
2 | > 30 | > 30 | > 30 | > 30 | > 30 | > 30 | O=C(c1ccc(F)c(F)c1)N1CCN2C(=O)c3ccccc3C12c1ccccc1 (configuration not stated)
